Data reported in US20120121707A1, “Tolbutamide Particle And Preparing Method Thereof And Method Of Reducing A Blood Glucose” (National Taiwan University, priority 2010, published 2012).

Legend:
[1] = cited from earlier work
[2] = Particle size distribution analysis of tolbutamide particles; type: physicochemical
Excerpt: (§1) In the embodiments 1 to 4, the usage amount of the bulk drug of tolbutamide is in a range of 2 to 5 gram, and the other operation conditions, e.g. the pressures and the temperature of mixing, the temperatures before and after the expansion and the particle sizes of the tolbutamide micro-particles, are listed in Table 1 below.
as §1, with “embodiments 5” for “embodiments 1”, “to 8,” for “to 4,”, “Table 2” for “Table 1”
FIG. 1A is the schematic diagram showing the distribution and the cumulative distribution of the particle sizes for the bulk drug of tolbutamide, wherein the average particle size is 89.4 micron. FIG. 1B is the schematic diagram showing the distribution and the cumulative distribution of the particle sizes for the tolbutamide micro-particles obtained by using the method of the rapid expansion of supercritical solution (RESS) in the fourth embodiment. FIG. 1C is the schematic diagram showing the distribution and the cumulative distribution of the particle sizes for the tolbutamide micro-particles obtained by using the method of RESS with solid cosolvent (RESS-SC) in the eighth embodiment. […]

| average particle size ([2]; Table 1, RESS method, supercritical CO2, no cosolvent, bulk drug as comparison) | average particle size ([2]; text on FIGS. 1A-1D) | Structure (SMILES) | solubility in ethanol and chloroform ([1]; ethanol and chloroform) | solubility in water ([1]; water) |
| --- | --- | --- | --- | --- |
|  |  | CCCCNC(=O)NS(=O)(=O)c1ccc(C)cc1 [tolbutamide] | soluble in ethanol and chloroform | almost insoluble in the water |
| 89.4 μm | 89.4 micron | CCCCNC(=O)NS(=O)(=O)c1ccc(C)cc1 [Bulk drug of tolbutamide, tolbutamide] |  |  |
